Assay results as given in PubChem BioAssay (NCI).
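How tested: cells in 96-well plates exposed to compound for 48 hours at five concentrations. TGI is the concentration that stops growth completely.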

Experiments:
Experiment in all cases: DTP human tumour cell line panel, 48 h
[1] = test system: COLO 205 colon
[2] = test system: DU-145 prostate
[3] = test system: EKVX NSCLC
[4] = test system: HOP-92 NSCLC
[5] = test system: HS 578T breast
[6] = test system: NCI-H522 lung
[7] = test system: OVCAR-3 ovarian
[8] = test system: PC-3 prostate
[9] = test system: SK-MEL-5 melanoma
[10] = test system: SK-OV-3 ovarian
[11] = test system: SNB-75 CNS
[12] = test system: UO-31 renal
[13] = test system: SK-MEL-28 melanoma

Cn1c(-c2ccc(/C=N\N3CCN(/N=C/c4ccc(-c5c[n+]6ccccc6n5C)cc4)CC3)cc2)c[n+]2ccccc12
TGI [1]: > 100 µM | TGI [2]: > 100 µM | TGI [3]: > 100 µM | TGI [4]: 84.6 µM | TGI [5]: 92.8 µM | TGI [6]: > 100 µM | TGI [7]: > 100 µM | TGI [8]: > 100 µM | TGI [9]: > 100 µM | TGI [10]: > 100 µM | TGI [11]: > 100 µM | TGI [12]: > 100 µM

Cc1cccc(NC(=S)N=Nc2c(O)[nH]c3ccccc23)c1
TGI [1]: > 100 µM | TGI [2]: 70.6 µM | TGI [3]: > 100 µM | TGI [4]: > 100 µM | TGI [5]: > 100 µM | TGI [6]: > 100 µM | TGI [7]: > 100 µM | TGI [8]: > 100 µM | TGI [13]: > 100 µM | TGI [9]: > 100 µM | TGI [10]: > 100 µM | TGI [11]: > 100 µM | TGI [12]: > 100 µM

CNC(=O)c1[nH]cnc1/N=N/N(C)N
TGI [1]: > 100 µM | TGI [2]: > 100 µM | TGI [3]: > 100 µM | TGI [5]: > 100 µM | TGI [6]: > 100 µM | TGI [7]: > 100 µM | TGI [8]: > 100 µM | TGI [13]: > 100 µM | TGI [9]: > 100 µM | TGI [10]: > 100 µM | TGI [11]: > 100 µM | TGI [12]: > 100 µM

CN(C)c1ccc(/C=C/C=C(/C#N)c2ccccc2)cc1
TGI [1]: > 92.1 µM | TGI [2]: > 100 µM | TGI [3]: > 100 µM | TGI [4]: > 100 µM | TGI [5]: 69.2 µM | TGI [6]: > 65.7 µM | TGI [7]: 28.5 µM | TGI [8]: > 100 µM | TGI [13]: > 100 µM | TGI [9]: > 100 µM | TGI [10]: > 74.9 µM | TGI [11]: 76 µM | TGI [12]: > 100 µM

CC(C)CCn1c(=O)c2c(=O)[nH][nH]c2c2ccccc21
TGI [1]: > 100 µM | TGI [2]: > 100 µM | TGI [3]: > 100 µM | TGI [4]: > 100 µM | TGI [5]: > 100 µM | TGI [6]: > 100 µM | TGI [7]: > 100 µM | TGI [8]: > 100 µM | TGI [13]: > 100 µM | TGI [9]: > 100 µM | TGI [12]: > 100 µM

COc1ccc(NC(=O)/C(CC2=Nc3ccc([N+](=O)[O-])cc3NC2O)=N\NC(=O)C[N+](C)(C)C)c(OC)c1 (stereo not given)
TGI [1]: > 100 µM | TGI [2]: > 100 µM | TGI [3]: > 100 µM | TGI [4]: > 100 µM | TGI [5]: > 100 µM | TGI [6]: > 100 µM | TGI [7]: > 100 µM | TGI [8]: > 100 µM | TGI [13]: > 100 µM | TGI [9]: 96.3 µM | TGI [10]: > 100 µM | TGI [11]: > 100 µM | TGI [12]: > 100 µM

O[C@@H]1C[C@@H]2N[C@@](O)(C[C@@H]2O)[C@H]1O
TGI [1]: > 100 µM | TGI [2]: > 100 µM | TGI [3]: > 100 µM | TGI [4]: > 100 µM | TGI [5]: > 100 µM | TGI [6]: > 100 µM | TGI [7]: > 100 µM | TGI [8]: > 100 µM | TGI [13]: > 100 µM | TGI [9]: > 100 µM | TGI [10]: > 100 µM | TGI [11]: > 100 µM | TGI [12]: > 100 µM

CN(CCc1ccc(N)cc1)[C@H]1CCCC[C@H]1N1CCCC1
TGI [1]: > 100 µM | TGI [2]: > 100 µM | TGI [3]: > 100 µM | TGI [4]: > 100 µM | TGI [5]: > 100 µM | TGI [6]: > 100 µM | TGI [7]: > 100 µM | TGI [8]: > 100 µM | TGI [13]: > 100 µM | TGI [9]: > 100 µM | TGI [10]: > 100 µM | TGI [11]: > 100 µM | TGI [12]: > 100 µM

C=C1C(=O)OC2C1CC(O)/C(C)=C\CCC1(C)OC21 (stereo not given)
TGI [1]: 89.9 µM | TGI [2]: > 100 µM | TGI [3]: > 100 µM | TGI [4]: > 100 µM | TGI [5]: 67.9 µM | TGI [6]: 33 µM | TGI [7]: 34.1 µM | TGI [8]: > 100 µM | TGI [13]: 91.1 µM | TGI [9]: 47.5 µM | TGI [10]: > 100 µM | TGI [11]: > 100 µM | TGI [12]: 66.6 µM

Cc1ccc(N=C2C(=O)C3=C(OC(C)(C)CC3)c3ccccc32)cc1
TGI [1]: 3.29 µM | TGI [2]: 2.59 µM | TGI [3]: 3.35 µM | TGI [4]: 3.2 µM | TGI [5]: > 23.2 µM | TGI [6]: 3 µM | TGI [7]: 0.589 µM | TGI [8]: 3.52 µM | TGI [13]: 4.69 µM | TGI [9]: 2.28 µM | TGI [10]: 3.1 µM | TGI [11]: 2.51 µM | TGI [12]: 1.96 µM

C=CC[C@H](C)CCC(=O)N1[C@H]2CC3CC[C@@]2(CS1(=O)=O)C3(C)C
TGI [1]: > 100 µM | TGI [2]: > 100 µM | TGI [3]: > 100 µM | TGI [4]: > 100 µM | TGI [5]: > 100 µM | TGI [6]: 99 µM | TGI [8]: > 100 µM | TGI [13]: > 100 µM | TGI [9]: 51.3 µM | TGI [10]: > 100 µM | TGI [12]: > 100 µM

S=c1[nH]c(=S)c2cc(Sc3ccc4[nH]c(=S)[nH]c(=S)c4c3)ccc2[nH]1
TGI [1]: 52.4 µM | TGI [2]: > 100 µM | TGI [3]: > 100 µM | TGI [4]: 57.4 µM | TGI [5]: 56.1 µM | TGI [6]: > 100 µM | TGI [7]: > 100 µM | TGI [8]: > 100 µM | TGI [13]: > 100 µM | TGI [9]: > 100 µM | TGI [10]: 60 µM | TGI [11]: 42.6 µM | TGI [12]: 82.4 µM

Cn1c(-c2cccs2)cc(-c2cccs2)c1-c1ccsc1
TGI [1]: > 100 µM | TGI [2]: > 100 µM | TGI [3]: > 100 µM | TGI [4]: > 100 µM | TGI [5]: > 100 µM | TGI [7]: 75.2 µM | TGI [8]: > 100 µM | TGI [13]: > 100 µM | TGI [9]: > 100 µM | TGI [10]: > 100 µM | TGI [11]: > 100 µM | TGI [12]: > 100 µM

Cc1ccc2c(n1)C(=O)c1ccccc1C2=O
TGI [1]: 37 µM | TGI [2]: 36.4 µM | TGI [3]: 96.3 µM | TGI [4]: > 100 µM | TGI [5]: > 100 µM | TGI [6]: 52.4 µM | TGI [7]: 16.5 µM | TGI [8]: 68.8 µM | TGI [13]: > 100 µM | TGI [9]: 19.7 µM | TGI [10]: > 100 µM | TGI [11]: 92.4 µM | TGI [12]: > 92.7 µM

Nc1nc(Cl)cc(Nc2cc(Cl)cc(Cl)c2)n1
TGI [1]: 41.4 µM | TGI [2]: 47.3 µM | TGI [3]: 45.7 µM | TGI [4]: 40.3 µM | TGI [5]: 41.1 µM | TGI [6]: 24.3 µM | TGI [7]: 48.6 µM | TGI [8]: 41.5 µM | TGI [9]: 33.9 µM | TGI [10]: 35.8 µM | TGI [11]: 39.5 µM | TGI [12]: 36.5 µM

CC1C[C@]2(C)C(=O)N(c3ccccc3)C(=N)[C@@H]2N(C)c2ccccc21 (stereo not given in full)
TGI [1]: > 100 µM | TGI [2]: > 100 µM | TGI [3]: > 100 µM | TGI [5]: > 100 µM | TGI [6]: > 100 µM | TGI [7]: > 100 µM | TGI [8]: > 100 µM | TGI [13]: > 100 µM | TGI [9]: > 100 µM | TGI [11]: > 100 µM | TGI [12]: > 100 µM

Cc1cc2c(c(C=NCc3ccccc3)c1)OC1(C=C2)Oc2ccccc2C(=O)N1C (stereo not given)
TGI [1]: 39.8 µM | TGI [2]: 70.4 µM | TGI [3]: 57.6 µM | TGI [4]: 43 µM | TGI [5]: 63.6 µM | TGI [7]: > 100 µM | TGI [8]: 75.3 µM | TGI [13]: > 100 µM | TGI [9]: 50.3 µM | TGI [10]: > 100 µM | TGI [11]: 75.8 µM | TGI [12]: 40.9 µM
